Measurements: ChEMBL document CHEMBL1144315, “Three-dimensional quantitative structure (3-D QSAR) activity relationship studies on imidazolyl and N-pyrrolyl heptenoates as 3-hydroxy-3-methylglutaryl-CoA reductase (HMGR) inhibitors by comparative molecular similarity indices analysis (CoMSIA)” (Bioorg Med Chem Lett, 2005)

Molecular target: T1, 3-hydroxy-3-methylglutaryl-coenzyme A reductase (Homo sapiens, UniProt P04035)
T1 sequence (P04035 whole entry): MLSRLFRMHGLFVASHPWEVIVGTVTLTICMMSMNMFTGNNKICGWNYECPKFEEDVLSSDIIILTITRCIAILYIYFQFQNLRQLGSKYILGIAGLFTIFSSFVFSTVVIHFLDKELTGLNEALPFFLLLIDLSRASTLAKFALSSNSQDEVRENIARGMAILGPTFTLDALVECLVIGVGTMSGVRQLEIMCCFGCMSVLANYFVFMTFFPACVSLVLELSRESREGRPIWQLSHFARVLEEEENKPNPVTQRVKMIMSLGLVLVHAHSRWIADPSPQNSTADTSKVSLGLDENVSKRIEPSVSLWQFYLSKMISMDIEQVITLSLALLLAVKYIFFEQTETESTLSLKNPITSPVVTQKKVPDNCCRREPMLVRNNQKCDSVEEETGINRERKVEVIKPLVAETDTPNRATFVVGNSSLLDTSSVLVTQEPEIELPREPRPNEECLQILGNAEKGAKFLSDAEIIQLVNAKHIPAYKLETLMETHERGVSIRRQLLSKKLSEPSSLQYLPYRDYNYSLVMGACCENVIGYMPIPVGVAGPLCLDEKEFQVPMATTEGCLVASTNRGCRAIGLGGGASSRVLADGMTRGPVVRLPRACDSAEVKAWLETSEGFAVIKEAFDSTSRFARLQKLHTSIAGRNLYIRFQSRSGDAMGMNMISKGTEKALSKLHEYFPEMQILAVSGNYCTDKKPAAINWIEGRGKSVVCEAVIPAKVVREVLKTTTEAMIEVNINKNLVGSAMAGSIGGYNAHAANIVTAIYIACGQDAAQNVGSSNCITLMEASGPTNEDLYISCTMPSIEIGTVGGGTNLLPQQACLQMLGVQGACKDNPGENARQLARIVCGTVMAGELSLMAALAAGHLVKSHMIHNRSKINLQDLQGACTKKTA
Test: Inhibitory concentration against 3-hydroxy-3-methylglutaryl-CoA reductase

Row | SMILES | IC50
1 | O=C(O)C[C@H](O)C[C@H](O)/C=C/n1c(C(F)(F)F)nc(-c2ccc(F)cc2)c1-c1ccc(F)cc1 | 7.89 nM
2 | Cc1nc(-c2ccc(F)cc2)c(-c2ccc(F)cc2)n1/C=C/[C@@H](O)C[C@@H](O)CC(=O)O | < 7 nM
3 | Cc1cc(F)ccc1-c1c(-c2ccc(F)cc2)nc(C(C)C)n1/C=C/[C@@H](O)C[C@@H](O)CC(=O)O | 8.4 nM
4 | CNc1cccc(-c2nc(C(C)C)n(/C=C/[C@@H](O)C[C@@H](O)CC(=O)O)c2-c2ccc(F)cc2)c1 | 8.52 nM
5 | CCc1cc(-c2c(-c3ccc(F)cc3)nc(C(C)C)n2/C=C/[C@@H](O)C[C@@H](O)CC(=O)O)cc(CC)c1F | 7 nM
6 | CC(C)c1cc(-c2cccc(Cl)c2)c(-c2ccc(F)cc2)n1/C=C/[C@@H](O)C[C@@H](O)CC(=O)O | 8.7 nM
7 | CC(C)c1cc(-c2ccc(F)cc2)c(-c2cccc(Br)c2)n1/C=C/[C@@H](O)C[C@@H](O)CC(=O)O | 7.16 nM
8 | CC(C)c1c(-c2ccc(F)cc2)nc(-c2ccc(F)cc2)n1/C=C/[C@@H](O)C[C@@H](O)CC(=O)O | 9 nM
9 | CC(C)c1cc(-c2cccc(Br)c2)c(-c2ccc(F)cc2)n1/C=C/[C@@H](O)C[C@@H](O)CC(=O)O | 9.3 nM
10 | CC(C)c1nc(-c2ccc(F)cc2)c(-c2ccc(F)cc2)n1/C=C/[C@H](O)C[C@H](O)CC(=O)O | 6.15 nM
11 | CC(C)c1nc(-c2cccnc2)c(-c2ccc(F)cc2)n1/C=C/[C@@H](O)C[C@@H](O)CC(=O)O | 9 nM
12 | CC(C)c1nc(-c2ccc(F)cc2)c(-c2ccc(F)cc2)n1/C=C/[C@H](O)C[C@@H](O)CC(=O)O | 5.7 nM
13 | CC(C)c1cc(-c2ccc(F)cc2)c(-c2ccc(F)cc2)n1/C=C/[C@@H](O)C[C@@H](O)CC(=O)O (stereo in doubt; 29) | 6.98 nM
14 | COCc1c(C(C)C)nc(C(C)C)c(/C=C/[C@@H](O)C[C@@H](O)CC(=O)O)c1-c1ccc(F)cc1 [CERIVASTATIN] | 10 nM
15 | CC(C)n1c(/C=C/C(O)CC(O)CC(=O)O)c(-c2ccc(F)cc2)c2ccccc21 (stereo not drawn) [FLUVASTATIN] | 28 nM

More lines, in order of falling IC50, values ahead:

Row | IC50 | SMILES
16 | 23 nM | CC[C@H](C)C(=O)O[C@H]1CCC=C2C=C[C@H](C)[C@H](CC[C@@H]3C[C@@H](O)CC(=O)O3)[C@H]21 [MEVASTATIN]
17 | 9.52 nM | CC(C)c1c(Br)c(-c2ccc(F)cc2)c(-c2ccc(F)cc2)n1/C=C/[C@@H](O)C[C@@H](O)CC(=O)O
18 | 9 nM | CC(C)c1nc(-c2ccc(F)cc2)c(-c2ccc(F)cc2)n1/C=C/[C@@H](O)C[C@@H](O)CC(=O)O
19 | 8.7 nM | CC(C)c1nc(-c2cccc(S(C)(=O)=O)c2)c(-c2ccc(F)cc2)n1/C=C/[C@@H](O)C[C@@H](O)CC(=O)O
20 | 8.7 nM | CC(C)c1cc(-c2ccccc2)c(-c2ccc(F)cc2)n1/C=C/[C@@H](O)C[C@@H](O)CC(=O)O
21 | 8.7 nM | Cc1cc(-c2nc(C(C)C)n(/C=C/[C@@H](O)C[C@@H](O)CC(=O)O)c2-c2ccc(F)cc2)cc(C)c1Cl
22 | 8.7 nM | CC(C)c1cc(-c2ccccn2)c(-c2ccc(F)cc2)n1/C=C/[C@@H](O)C[C@@H](O)CC(=O)O
23 | 8.7 nM | CC(C)c1cc(-c2ccc(F)cc2)c(-c2ccc(F)cc2)n1/C=C/[C@@H](O)C[C@@H](O)CC(=O)O (stereo in doubt; 19)
24 | 8.3 nM | CC(C)c1cc(-c2ccncc2)c(-c2ccc(F)cc2)n1/C=C/[C@@H](O)C[C@@H](O)CC(=O)O
25 | 8.15 nM | CC(C)(C)c1nc(-c2ccc(F)cc2)c(-c2ccc(F)cc2)n1/C=C/[C@@H](O)C[C@@H](O)CC(=O)O
26 | 8.1 nM | CC(C)c1nc(-c2ccc(F)cc2)c(-c2cccc(Cl)c2)n1/C=C/[C@@H](O)C[C@@H](O)CC(=O)O
27 | 8.04 nM | CN(C)c1nc(-c2ccc(F)cc2)c(-c2ccc(F)cc2)n1/C=C/[C@@H](O)C[C@@H](O)CC(=O)O
28 | 7.66 nM | CC(C)c1nc(-c2ccc(F)cc2)c(-c2cc(Cl)cc(Cl)c2)n1/C=C/[C@@H](O)C[C@@H](O)CC(=O)O
29 | 7.6 nM | CC(C)c1cc(-c2ccc(F)cc2)c(-c2ccccc2)n1/C=C/[C@@H](O)C[C@@H](O)CC(=O)O
30 | 7.52 nM | Cc1cc(-c2c(-c3ccc(F)cc3)nc(C(C)C)n2/C=C/[C@@H](O)C[C@@H](O)CC(=O)O)cc(C)c1F
31 | 7.25 nM | Cc1cc(C)cc(-c2c(-c3ccc(F)cc3)nc(C(C)C)n2/C=C/[C@@H](O)C[C@@H](O)CC(=O)O)c1
32 | 7.15 nM | CC(C)c1cc(-c2ccc(F)cc2)c(-c2cccc(Cl)c2)n1/C=C/[C@@H](O)C[C@@H](O)CC(=O)O
33 | 5 nM | CC(C)c1nc(N(C)S(C)(=O)=O)nc(-c2ccc(F)cc2)c1/C=C/[C@@H](O)C[C@@H](O)CC(=O)O [ROSUVASTATIN]
